Assay results from patent publication US8076321B2, “Compositions for treatment of systemic mastocytosis” (priority 2005, dated 2011).
≈ marks a conversion by molar mass, not a printed value. Where “and” joins values, the source holds several entries; their conditions need not be identical. Identical values can stand only once. Entries after “also recorded” stand apart in the source; their conditions may differ. Like-named read-outs stand apart in the source and are kept apart here.

Columns and labels:
[1] = test system: HMC-1.1 cells; test: cells; conditions: Homo sapiens, read-out: IC50, 3H-thymidine uptake in HMC-1.1 cells
[2] = test system: HMC-1.2 cells; test: cells; conditions: Homo sapiens, read-out: IC50, 3H-thymidine uptake in HMC-1.2 cells
[3] = test system: HMC-1.2 cells; test: Apoptosis in HMC-1.2 cells (light and electron microscopy, annexin V/PI, Tunel); format: cell-based, human; conditions: 1 μM, 24 hours
Protocol: For flow cytometric determination of apoptosis and cell viability, combined annexin V/propidium iodide staining is performed. […] Thereafter, cells are washed in PBS and then are incubated with annexinV-APC (Alexis Biochemicals, Lausen, Switzerland) in binding buffer containing HEPES (10 mM, pH 7.4), NaCl (140 mM), and CaCl2 (2.5 mM). Thereafter, propidium iodide (1 μg/ml) is added. Cells are then washed and analyzed by flow cytometry on a FACSCalibur (Becton Dickinson).

[4] = target: T1, wt KIT (Ton.Kit.wt Ba/F3 cells) (Homo sapiens, UniProt P10721); test: KIT phosphorylation by immunoprecipitation and Western blotting in Ton.Kit.wt cells; format: cell-based; conditions: 1 μM, 4 hours; doxycycline, SCF 100 ng/ml
T1 construct: expressed in transfected cells
T1 sequence (P10721 26-976): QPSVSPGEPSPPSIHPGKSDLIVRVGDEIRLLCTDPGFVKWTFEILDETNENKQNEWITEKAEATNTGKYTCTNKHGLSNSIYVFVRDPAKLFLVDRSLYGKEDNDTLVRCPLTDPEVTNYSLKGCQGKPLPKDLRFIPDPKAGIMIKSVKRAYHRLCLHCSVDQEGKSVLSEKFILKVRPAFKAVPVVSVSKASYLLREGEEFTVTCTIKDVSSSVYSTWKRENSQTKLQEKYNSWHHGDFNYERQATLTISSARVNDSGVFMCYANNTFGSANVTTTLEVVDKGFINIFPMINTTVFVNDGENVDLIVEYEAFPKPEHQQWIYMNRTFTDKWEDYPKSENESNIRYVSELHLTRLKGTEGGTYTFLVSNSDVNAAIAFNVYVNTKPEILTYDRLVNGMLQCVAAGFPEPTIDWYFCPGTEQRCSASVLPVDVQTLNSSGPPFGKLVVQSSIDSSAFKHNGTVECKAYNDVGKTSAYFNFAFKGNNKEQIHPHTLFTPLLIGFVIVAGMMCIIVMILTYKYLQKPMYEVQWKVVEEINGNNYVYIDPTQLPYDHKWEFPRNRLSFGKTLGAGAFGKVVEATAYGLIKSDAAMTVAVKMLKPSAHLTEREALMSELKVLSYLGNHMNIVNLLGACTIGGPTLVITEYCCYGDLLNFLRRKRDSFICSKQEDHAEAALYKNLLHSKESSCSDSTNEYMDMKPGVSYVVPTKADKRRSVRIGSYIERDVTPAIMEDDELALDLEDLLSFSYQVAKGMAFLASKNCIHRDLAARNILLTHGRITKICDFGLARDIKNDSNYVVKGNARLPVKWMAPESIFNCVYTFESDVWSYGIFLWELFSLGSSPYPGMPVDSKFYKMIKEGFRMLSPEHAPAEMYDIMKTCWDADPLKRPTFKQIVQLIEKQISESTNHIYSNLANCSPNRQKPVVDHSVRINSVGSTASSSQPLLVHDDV
Protocol: (§1) In case of Ton.Kit.wt cells, KIT phosphorylation is induced by adding rhSCF (100 ng/ml). Immunoprecipitation (IP) and Western blotting are performed as described previously.^32 In brief, cells are washed at 4° C. and resuspended in RIPA buffer (1 ml buffer per 10^8 cells) consisting of 50 mM Tris, 150 mM sodium chloride (NaCl), 1% nonidet P40 (NP-40), 0.25% deoxycholic acid, 0.1% sodium dodecyl sulfate (SDS), 1 mM ethylene-diamine-tetraacetic acid (EDTA), 1 mM sodium fluoride (NaF), 1 mM phenylmethylsulfonyl fluoride (PMSF) and 1 mM sodium orthovanadate (Na3VO4). After incubation in RIPA buffer supplemented with proteinase inhibitor cocktail (Roche) for 30 minutes at 4° C. (vortexed vigorously every 5 minutes), lysates are centrifuged to remove insoluble particles. For IP, lysates from 1×10^7 cells are incubated with anti-KIT antibody SR1^37 (kindly provided by Dr. V. Broudy, University of Washington, Seattle, Wash.) or with the anti-KIT antibody 1C1^38 (kindly provided by Dr. H.-J. Bühring, University of Tübingen, Germany) and protein G Sepharose beads (Amersham) in IP-buffer (50 mM Tris-Cl, pH 7.4, 150 mM NaCl, 100 mM NaF, and 1% NP40) at 4° C. overnight. Then, beads are washed 3 times in IP buffer. […] Membranes are blocked for 1 hour in 5% blocking reagent (Roche) and are then incubated with anti-KIT antibody 1C1 or with the monoclonal antibody 4G10 (Upstate Biotechnology, Lake Placid, N.Y.) directed against tyrosine-phosphorylated proteins, at 4° C. overnight. Antibody reactivity is made visible by sheep anti-mouse IgG antibody and Lumingen PS-3 detection reagent (both from Amersham), and a CL-Xposure film (Pierce Biotechnology, Rockford, Ill.).
(§2) In case of Ton.Kit.wt cells, KIT phosphorylation was induced by adding rhSCF (100 ng/ml). […]

[5] = test system: normal bm cells; test: 3H-thymidine uptake in normal bone marrow cells (control); format: cell-based, human; conditions: control sample, not shown
Protocol: Both patients gave informed consent before bm puncture. The bm aspirate is obtained from the posterior iliac crest and collected in syringes containing preservative-free heparin. Cells are layered over Ficoll to isolate mononuclear cells (MNC).
In select experiments, HMC-1 cells (both subclones) are incubated with various concentrations of IFNα (0.1-500,000 U/ml) or 2CdA (0.005-10 μg/ml).
The bm aspirate samples were collected in syringes containing preservative-free heparin. Cells were layered over Ficoll to isolate mononuclear cells (MNC). […] Both patients gave written informed consent before bm puncture or blood donation. The study was approved by the local institutional review board and was conducted in accordance with the declaration of Helsinki.
Filters were air-dried, and the bound radioactivity was counted in a β-counter (Top-Count NXT, Packard Bioscience). […] All experiments were performed in triplicates.

[6] = test system: HMC-1.1 cells; test: Apoptosis in HMC-1.1 cells (light and electron microscopy, Tunel); conditions: 24 hours; for apoptosis in HMC-1.1 cells by Tunel assay: 1 μM; for apoptosis in HMC-1.1 cells by light microscopy: various concentrations
[7] = target: T2, KIT V560G (HMC-1.1 cells) (Homo sapiens, UniProt P10721, V560G); test: KIT phosphorylation by immunoprecipitation and Western blotting in HMC-1.1 cells; format: cell-based; conditions: 1 μM, 4 hours
T2 construct: endogenous in cells; host or cells: HMC-1.1 (subclone of the human mast cell leukemia line HMC-1)
T2 sequence (P10721 26-976 V560G): as the sequence (P10721 26-976) above, with V535G counted along it
Protocol: as §1, §2

[8] = test system: HMC-1.2 cells; test: Cell surface antigen expression on HMC-1.2 cells by flow cytometry; format: cell-based, human; conditions: 24 hours
Protocol: After incubation with drugs, HMC-1 cells are washed and subjected to single color flow cytometry using PE-conjugated antibodies against MC antigens known to be overexpressed on neoplastic MC in SM (compared to normal MC) and/or are expressed at an early stage of mastopoiesis (CD2, CD13, CD63, CD117, CD164, CD203c).^45-47 Flow cytometry is performed on a FACSan (Becton Dickinson) as described previously.^29
Flow cytometry was performed on a FACScan (Becton Dickinson) as described.^30,37,51

[9] = test system: HMC-1.2 cells; test: Apoptosis in HMC-1.2 cells (light and electron microscopy, annexin V/PI, Tunel); format: cell-based, human; conditions: 24 hours; for apoptosis in HMC-1.2 cells by light microscopy: various concentrations
[10] = Human trials, Maximum Tolerated Dose; format: in vivo
[11] = test system: HMC-1.1 cells
[12] = test system: HMC-1.2 cells
[13] = test system: non-transfected Ba/F3 cells; conditions: not shown
[14] = test system: Ton.Kit.wt cells (Ba/F3 with inducible wt KIT); test: cells; conditions: Mus musculus, BaF3, 48 h, read-out: IC50, SCF-dependent growth of doxycycline-exposed Ton.Kit.wt cells
[15] = 1 μM, dasatinib various concentrations
[16] = PKC412 1 μM, dasatinib various concentrations

| SMILES | apoptosis in HMC-1.2 cells by annexinV/propidium iodide flow cytometry and Tunel assay [3] | SCF-induced phosphorylation of KIT in Ton.Kit.wt cells [4] | apoptosis in HMC-1.1 cells by Tunel assay [6] | apoptosis in HMC-1.1 cells by light microscopy [6] | KIT phosphorylation in HMC-1.1 cells [7] | expression of KIT (CD117) on HMC-1.2 cells [8, 15] | apoptosis in HMC-1.2 cells by light microscopy [9] | IC50 [11] | expression of CD antigens on HMC-1.2 cells ([8]; 1 μM) | IC50 [12] | IC50 [14] | other results |
| --- | --- | --- | --- | --- | --- | --- | --- | --- | --- | --- | --- | --- |
| Nc1nc(Cl)nc2c1ncn2[C@H]1C[C@H](O)[C@@H](CO)O1 [2CdA, 2-chlorodeoxyadenosine] | – | – | – | – | – | – | – | – | – | – | – | IC50 [1]: 0.1 to 0.3 µg/mL (≈ 0.35 to 1.05 µM); IC50 [2]: 0.01 to 0.02 µg/mL (≈ 0.035 to 0.07 µM) |
| CO[C@@H]1[C@H](N(C)C(=O)c2ccccc2)C[C@H]2O[C@]1(C)n1c3ccccc3c3c4c(c5c6ccccc6n2c5c31)C(=O)NC4 [PKC412, N-[(9S,10R,11R,13R)-2,3,10,11,12,13-hexahydro-10-methoxy-9-methyl-1-oxo-9,13-epoxy-1H,9H-diindolo[1,2,3-gh:3′,2′,1′-1m]pyrrolo[3,4-j][1,7]benzodiazonin-11-yl]-N-methylbenzamide] | induce apoptosis in HMC-1.2; also recorded: also induced apoptosis in both cell lines; also recorded: produced apoptosis in most HMC-1.1 and HMC-1.2 cells | decreased the SCF-induced phosphorylation of KIT | also induced apoptosis in both cell lines; also recorded: produced apoptosis in most HMC-1.1 and HMC-1.2 cells | induce apoptosis in both HMC-1 subclones in a dose-dependent manner; also recorded: also found to induce apoptosis in both HMC-1 subclones | decreased phosphorylation of KIT | slight decrease | induce apoptosis in both HMC-1 subclones in a dose-dependent manner; also recorded: also found to induce apoptosis in both HMC-1 subclones | – | – | – | – | effect on 3H-thymidine uptake in normal bm cells [5]: showed no effect; also recorded: no effects; expression of CD203c on HMC-1.2 cells ([8]; 1 μM): no significant effects; expression of CD63 on HMC-1.2 cells ([8]; PKC412 1 μM or various, dasatinib various concentrations): significant decrease; also recorded: dose-dependently decreased expression of CD63; expression of CD2 on HMC-1.2 cells [8, 16]: significant decrease; expression of CD13 on HMC-1.2 cells [8, 16]: no significant effects; expression of CD164 on HMC-1.2 cells [8, 16]: significant decrease; apoptosis in HMC-1.2 cells by electron microscopy ([9]; 1 μM): produce apoptosis in HMC-1.2 cells; Maximum Tolerated Dose (MTD), total dose [10]: 225 mg/day |
| Cc1ccc(NC(=O)c2ccc(CN3CCN(C)CC3)cc2)cc1Nc1nccc(-c2cccnc2)n1 [imatinib, reference compound] | showed no effects on HMC-1.2 cells | decreased the SCF-induced phosphorylation of KIT | induced apoptosis only in HMC-1.1 cells; also recorded: potent apoptosis-inducing effects only in HMC-1.1 cells | produce apoptosis in HMC-1.1 cells | reduced KIT phosphorylation | slight decrease | showed no effects on HMC-1.2 cells | 10 to 30 nM | no significant effects | – | – | antiproliferative effect on HMC-1.2 cells ([12]; 48 hours): no significant antiproliferative effects |
| Cc1cn(-c2cc(NC(=O)c3ccc(C)c(Nc4nccc(-c5cccnc5)n4)c3)cc(C(F)(F)F)c2)cn1 [AMN107, 4-Methyl-3-[[4-(3-pyridinyl)-2-pyrimidinyl]amino]-N-[5-(4-methyl-1H-imidazol-1-yl)-3-(trifluoromethyl)phenyl]benzamide] | – | decreased the SCF-induced phosphorylation of KIT | potent apoptosis-inducing effects only in HMC-1.1 cells | induce apoptosis in both HMC-1 subclones in a dose-dependent manner | strongly reduced KIT phosphorylation | slight decrease | induce apoptosis in both HMC-1 subclones in a dose-dependent manner | 3 to 10 nM and 5 to 10 nM | no significant effects | 1000 to 5000 nM | 30 to 300 nM | growth-inhibitory effect on control (non-transfected) Ba/F3 cells [13]: neither doxycycline (1 μg/ml), nor the TK inhibitors (imatinib, PKC412, AMN107), showed growth-inhibitory effects |
| Cc1nc(Nc2ncc(C(=O)Nc3c(C)cccc3Cl)s2)cc(N2CCN(CCO)CC2)n1 [dasatinib, reference compound] | – | – | – | – | – | – | – | – | – | 200 to 500 nM | 1 to 10 nM | – |
